This note sets out measurements from PMC5516028, “Molecular tools for GABAA receptors: High affinity ligands for β1-containing subtypes” (Scientific Reports, 2017).

Holding throughout (assay type): cell-based
One experiment deals with T1, α1β3N41R GABAA receptors (Rattus norvegicus, UniProt P62813+P63079, N66R).
T1 construct: expressed in transfected cells; host or cells: Xenopus laevis oocytes, mRNA injected
The experiment is described as follows: Two electrode voltage clamp in Xenopus laevis oocytes, mutant α1β3N41R. To be noted: co-applied with GABA EC3-5, read-out: EC50 values for the mutated receptors. The source says:
(§1) cDNA’s of rat GABAA receptor subunits α1, α4, β1, β2, β3 and γ2S were cloned as described. cDNAs of the rat subunits α2, α3 and α5 were gifts from P. Malherbe, that of α6 and γ1 were gifts of P. Seeburg and that of δ was a gift of C. Czajkowski. The mutants were constructed using the Q5 Site-Directed Mutagenesis Kit (New England Biolabs) following manufacturer’s instruction. We used the wild-type rat β3-pCI vector as template and the primers […] and […] resulting in a substitution of amino acid N41 (AAC) to R (AGG). We used the wild-type rat β1-pCI vector as template and the primers […] and […] resulting in a substitution of amino acid R41 (CGG) to N (AAC). The mutated subunits were confirmed by sequencing.
(§2) In vitro transcription of mRNA was based on the cDNA expression vectors encoding for rat GABAA receptor subunits α1–6, β1-3, γ1,2, δ and the two β mutants (β1R41N and β3N41R)[40]. After linearizing the cDNA vectors with appropriate restriction endonucleases, the cDNA was purified and concentrated with the DNA Clean and Contentrator ^TM Kit (Zymoresearch, Catalog No. D4005). Capped transcripts of the purified cDNA were produced using the mMESSAGE mMACHINE® T7 transcription kit (Ambion, TX, USA) and polyadenylated using the Ambion PolyA tailing kit (Ambion). After transcription and polyadenylation the RNA was purified with the MEGAclear ^TM Kit (Ambion, Catalog No. AM1908). The final RNA concentration was measured on NanoDrop® ND-1000 and finally diluted and stored in diethylpyrocarbonate-treated water at −80 °C. For the microinjection, the RNA of αβ receptor combinations was mixed at 1:1 ratio (which leads to αβ receptors that consist of predominantly 3 beta and 2 alpha subunits[27]), for αkβlγm (k = 1–3, l = 1, 3, m = 1, 2) receptors at 1:1:5 ratio, for αkβ3γ2 (k = 4–6) and αkβlδ (k = 1, 4 and 6, l = 1, 3) receptor combinations at 3:1:5 ratio.
(§3) Mature female Xenopus laevis (Nasco, WI) were anesthetized in a bath of ice-cold 0.17% Tricain (Ethyl-m-aminobenzoate, Sigma, MO) before decapitation in full accordance with all rules of the Austrian animal protection law (see http://www.ris.bka.gv.at/Dokumente/BgblAuth/BGBLA_2012_I_114/BGBLA_2012_I_114.pdf) and the Austrian animal experiment by-laws (see https://www.ris.bka.gv.at/Dokumente/BgblAuth/BGBLA_2012_II_522/BGBLA_2012_II_522.pdf) which implement the European Directive 2010/63/EU (see http://eur-lex.europa.eu/LexUriServ/LexUriServ.do?uri=OJ:L:2010:276:0033:0079:en:PDF) into the Austrian law (all information accessed on July 27, 2016). The frog’s ovaries were transferred to ND96 medium (96 mM NaCl, 2 mM KCl, 1 mM MgCl2, 5 mM HEPES; pH 7.5). Stage 5–6 oocytes with the follicle cell layer around them were roughly dissected with forceps into packages of 10–15 cells and washed in Ca^2+-free ND96 medium. Cells were then digested with collagenase (type IA, Sigma, NO, 1 mg/mL ND96) at 18 °C shaking at 30 rpm for 30–60 minutes and gently defolliculated with the aid of a glass pipette with appropriate tip diameter and a platinum loop. Defolliculated cells were stored at 18 °C for at least 6 hours in ND96 solution containing penicillin G (10000 IU/100 mL) and streptomycin (10 mg/100 mL) in order to preselect and exclude damaged cells from further treatment. Healthy defolliculated oocytes were injected with an aqueous solution of mRNA. A total of 4.5 ng of mRNA per oocyte was injected with a Nanoject II (Drummond). After injection of mRNA, oocytes were incubated at 18 °C (ND96 + antibiotic) for 2–3 days for αβ receptors and for 3–4 days for αβγ or αβδ receptors before recording. When cells were measured at later time points, oocytes were stored at +4 °C instead of 18 °C.
(§4) For electrophysiological recordings, oocytes were placed on a nylon-grid in a bath of Ca^2+-containing NDE solution medium [96 mM NaCl, 5 mM HEPES-NaOH (pH 7.5), 2 mM KCl, 1 mM MgCl2, 1.8 mM CaCl2].
On the technique in general: In two-electrode clamp one electrode senses voltage and the other passes current.

For the next experiment, the target named is T2, α1β3 GABAA receptors (Rattus norvegicus, UniProt P62813+P63079).
T2 construct: expressed in transfected cells; host or cells: Xenopus laevis oocytes, mRNA injected
T2 sequence (P62813 28-455): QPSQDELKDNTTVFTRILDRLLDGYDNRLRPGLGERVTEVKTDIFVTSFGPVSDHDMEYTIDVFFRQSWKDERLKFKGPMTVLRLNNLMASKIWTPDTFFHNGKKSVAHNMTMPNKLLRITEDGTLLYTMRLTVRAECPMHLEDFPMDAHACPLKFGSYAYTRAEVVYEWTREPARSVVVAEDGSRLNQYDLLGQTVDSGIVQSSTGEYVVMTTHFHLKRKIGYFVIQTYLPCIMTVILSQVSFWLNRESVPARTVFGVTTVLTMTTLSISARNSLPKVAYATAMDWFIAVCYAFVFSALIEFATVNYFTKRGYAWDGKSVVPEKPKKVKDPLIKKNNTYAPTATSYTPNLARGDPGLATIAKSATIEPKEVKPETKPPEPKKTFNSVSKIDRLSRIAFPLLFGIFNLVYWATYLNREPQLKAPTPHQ
T2 sequence (P63079 26-473): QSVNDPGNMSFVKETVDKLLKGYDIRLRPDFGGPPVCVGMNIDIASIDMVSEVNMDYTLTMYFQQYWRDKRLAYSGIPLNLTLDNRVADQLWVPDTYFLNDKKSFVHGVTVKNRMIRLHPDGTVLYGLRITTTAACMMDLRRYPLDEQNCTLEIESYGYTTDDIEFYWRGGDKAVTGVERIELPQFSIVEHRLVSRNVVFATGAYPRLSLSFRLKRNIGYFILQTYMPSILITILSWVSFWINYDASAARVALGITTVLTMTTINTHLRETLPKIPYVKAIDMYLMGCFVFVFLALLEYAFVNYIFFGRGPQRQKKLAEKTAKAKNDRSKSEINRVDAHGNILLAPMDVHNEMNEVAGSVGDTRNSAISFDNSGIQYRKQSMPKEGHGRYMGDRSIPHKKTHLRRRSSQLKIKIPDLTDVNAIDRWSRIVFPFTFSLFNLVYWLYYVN
The experiment can be described thus: Two electrode voltage clamp in Xenopus laevis oocytes, α1β3.
Text: as §1, §2, §3, §4

The next experiment addresses T3, α1β2 GABAA receptors (Rattus norvegicus, UniProt P62813+P63138).
T3 construct: expressed in transfected cells; host or cells: Xenopus laevis oocytes, mRNA injected
The experiment can be described thus: Two electrode voltage clamp in Xenopus laevis oocytes, α1β2.
Text: as §1, §2, §3, §4

A further experiment addresses T4, α1β1 GABAA receptors (Rattus norvegicus, UniProt P15431+P62813).
T4 construct: expressed in transfected cells; host or cells: Xenopus laevis oocytes, mRNA injected
The experiment can be described thus: Two electrode voltage clamp in Xenopus laevis oocytes, α1β1.
Text: as §1, §2, §3, §4

In a further experiment the target is T5, α1β1R41N GABAA receptors (Rattus norvegicus, UniProt P15431+P62813, R66N).
T5 construct: expressed in transfected cells; host or cells: Xenopus laevis oocytes, mRNA injected
T5 sequence (P62813 28-455): as the sequence (P62813 28-455) above
T5 sequence (P15431 26-474 R66N): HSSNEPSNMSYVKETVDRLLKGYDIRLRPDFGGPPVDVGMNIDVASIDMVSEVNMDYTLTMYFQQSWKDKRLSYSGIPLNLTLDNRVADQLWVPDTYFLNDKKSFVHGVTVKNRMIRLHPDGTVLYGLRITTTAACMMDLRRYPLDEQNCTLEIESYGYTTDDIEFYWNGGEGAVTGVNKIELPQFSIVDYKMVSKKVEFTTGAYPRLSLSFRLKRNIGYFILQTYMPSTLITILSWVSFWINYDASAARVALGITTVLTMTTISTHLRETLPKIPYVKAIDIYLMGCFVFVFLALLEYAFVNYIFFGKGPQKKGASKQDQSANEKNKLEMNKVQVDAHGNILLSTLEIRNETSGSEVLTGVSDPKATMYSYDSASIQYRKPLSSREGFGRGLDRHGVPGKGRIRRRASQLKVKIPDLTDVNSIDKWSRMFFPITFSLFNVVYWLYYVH
The experiment can be described thus: Two electrode voltage clamp in Xenopus laevis oocytes, mutant α1β1R41N.
Text: as §1, §2, §3, §4

T4 sequence (P62813 28-455): as the sequence (P62813 28-455) above
T4 sequence (P15431 26-474): as the sequence (P15431 26-474 R66N) above, with N41R counted along it
T3 sequence (P62813 28-455): as the sequence (P62813 28-455) above
T3 sequence (P63138 25-474 limits assumed): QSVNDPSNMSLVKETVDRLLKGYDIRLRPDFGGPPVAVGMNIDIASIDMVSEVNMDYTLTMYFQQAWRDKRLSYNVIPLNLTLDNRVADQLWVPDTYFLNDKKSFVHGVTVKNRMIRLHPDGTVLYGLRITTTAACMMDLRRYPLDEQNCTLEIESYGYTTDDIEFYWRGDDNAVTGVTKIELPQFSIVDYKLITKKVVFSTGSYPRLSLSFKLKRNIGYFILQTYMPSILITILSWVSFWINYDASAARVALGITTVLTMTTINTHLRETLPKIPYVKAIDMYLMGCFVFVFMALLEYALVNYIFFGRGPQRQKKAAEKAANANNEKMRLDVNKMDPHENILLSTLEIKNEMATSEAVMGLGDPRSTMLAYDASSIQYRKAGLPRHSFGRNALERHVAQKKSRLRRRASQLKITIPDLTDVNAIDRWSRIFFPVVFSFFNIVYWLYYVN
T1 sequence (P62813 28-455): as the sequence (P62813 28-455) above
T1 sequence (P63079 26-473 N66R): as the sequence (P63079 26-473) above, with N41R counted along it

For orientation: EC50 means the concentration giving half of the maximal effect. Turning to `COc1ccc(-n2nc3c4cc(Cl)ccc4[nH]cc-3c2=O)cc1` [Compound 1, 8-Chloro-2-(4-methoxyphenyl)-2H-pyrazolo[4,3-c]quinolin-3(5H)-one], the EC50 on α1β3N41R GABAA receptors was 0.98 µM; on α1β3 GABAA receptors (α1β3, co-applied with GABA EC3-5, read-out: EC50), 1.84 µM; on α1β2 GABAA receptors, 1.15 µM; at α1β1 GABAA receptors (α1β1 (α1+/β1− interface), read-out: EC50), 0.13 µM; on α1β1R41N GABAA receptors (co-applied with GABA EC3-5) it was 0.8 µM. Moreover, the activity at 0.01 µM on α1β3 GABAA receptors (read-out: efficacy, % of control current (GABA EC3-5 = 100%), α1β3, 10 nM) worked out at 106 ± 1.6%. The activity at 3 µM on α1β3 GABAA receptors (read-out: efficacy, % of control current (GABA EC3-5 = 100%), α1β3, 3 µM) stood at 839 ± 105%. Also, the figures for the “Hill slope (nH)” value on α1β3 GABAA receptors (α1β3), at α1β2 GABAA receptors (α1β2) and at α1β1 GABAA receptors (α1β1) were 1.5±0.5, 1.1±0.3 and 1.3±0.4, respectively. For the same molecule, the activity at 0.001 µM is 100% on α1β2 GABAA receptors (read-out: efficacy, % of control current (GABA EC3-5 = 100%), α1β2, 1 nM) and 102 ± 1.7% on α1β1 GABAA receptors (read-out: efficacy, % of control current (GABA EC3-5 = 100%), α1β1, 1 nM). The activity at 10 µM on α1β2 GABAA receptors (read-out: efficacy, % of control current (GABA EC3-5 = 100%), α1β2, 10 µM) turned out to be 644 ± 57%. Moreover, at α1β1 GABAA receptors (read-out: efficacy, % of control current (GABA EC3-5 = 100%), α1β1, 3 nM), the activity at 0.003 µM came out at 100.5 ± 0.5%. On α1β1 GABAA receptors (read-out: efficacy, % of control current (GABA EC3-5 = 100%), α1β1, 30 nM), the activity at 0.03 µM came to 138 ± 13.3%. Moreover, the activity at 0.3 µM on α1β1 GABAA receptors (read-out: efficacy, % of control current (GABA EC3-5 = 100%), α1β1, 300 nM) came to 292 ± 24.5%. Besides, at α1β1 GABAA receptors (read-out: efficacy, % of control current (GABA EC3-5 = 100%), α1β1, 30 µM), the activity at 30 µM came out at 174 ± 34.2%. The current as % of control at 0.1 µM on α1β1R41N GABAA receptors (100nM, read-out: % of control current at EC3-5) came out at 80 ± 10%. Besides, at α1β1R41N GABAA receptors (300nM, read-out: % of control current at EC3-5), the current as % of control at 0.3 µM turned out to be 100 ± 10%. Also, the current as % of control at 1 µM at α1β1R41N GABAA receptors (1μM, read-out: % of control current at EC3-5) came to 140 ± 16%. For the same molecule, the current as % of control at 3 µM on α1β1R41N GABAA receptors (3µM, read-out: % of control current at EC3-5) was 195 ± 20%. In addition, the current as % of control at 10 µM on α1β1R41N GABAA receptors (10μM, read-out: % of control current at EC3-5) was 205 ± 20%. On α1β1R41N GABAA receptors (30μM, read-out: % of control current at EC3-5), the current as % of control at 30 µM was determined as 150 ± 10%.
